Data reported in publication PMC8035703, “Effect of Synchronous Versus Sequential Regimens on the Pharmacokinetics and Biodistribution of Regorafenib with Irradiation” (Pharmaceutics, 2021).
Entries after “also recorded” stand apart in the source; their conditions may differ. Read-outs that look alike come from different tables or passages of the source.

Test: Organ distribution of regorafenib in rats with or without RT
Type: in vivo, Sprague-Dawley rats
Conditions: for concentration at 4 h: Sprague-Dawley, rat, 16 mg/kg, 4 h after oral administration
Protocol: According to the formula used to translate doses from animal to human, human equivalent dose (HED, mg/kg) = animal dose (mg/kg) × animal km/human km, we calculated the daily dose of regorafenib for rats to be 16 (mg/kg/day). The rats were randomly divided into ten groups with six rats in each group. The concurrent groups treated with regorafenib 1 h after RT, in the same day, to mimic regorafenib concurrent with RT in the daily practice. The sequential groups treated with regorafenib following RT (not in the same day), to mimic RT followed by regorafenib in the daily practice. The one fraction study group included (A) a sham group, regorafenib with RT0 Gy (regorafenib × 1 d); concurrent groups treated with regorafenib 1 h after (B) RT2 Gy with 1 fraction (RT2 Gy × 1 f’x) and (D) RT9 Gy with 1 fraction (RT9 Gy × 1 f’x); and sequential groups treated with regorafenib 24 h after (C) RT2 Gy × 1 f’x and (E) RT9 Gy × 1 f’x. Continued treatment mimicking clinical practice was applied to (A) a sham group, regorafenib (p.o. (per os), q.d. × 3 d) with RT0 Gy (regorafenib × 3 d); concurrent groups treated with regorafenib (p.o., q.d. × 3 d) 1 h after (B) RT2 Gy with 3 fractions (RT2 Gy × 3 f’x) and (D) RT9 Gy with 3 fractions (RT9Gy × 3 f’x); and sequential groups treated with regorafenib 24 h (p.o., q.d. × 3 d) after (C) RT2 Gy × 3 f’x and (E) RT9 Gy × 3 f’x. (Figure 1A,B).
Organs, including the brain, liver, heart, spleen, lung and kidney, were collected, weighed and stored at −20 °C, until analysis.
The organ samples were homogenized in 50% aqueous acetonitrile (sample weight: volume = 1:5) and centrifuged at 13,000× g, for 10 min, at 4 °C. The supernatant was stored at −20 °C, until analysis. Additionally, 150 μL of IS solution (diethylstilbestrol) was combined with each organ sample (50 μL) for protein precipitation. Finally, the filtrate (20 μL) was analyzed by HPLC.

## CNC(=O)c1cc(Oc2ccc(NC(=O)Nc3ccc(Cl)c(C(F)(F)F)c3)c(F)c2)ccn1 [regorafenib, Regorafenib]
brain, oral, RT2 Gy × 1 f'x followed by regorafenib 16 mg/kg × 1 d (sequential), read-out: Concentration in brain
  concentration at 4 h: 80 ± 60 ng/g
brain, oral, RT2 Gy × 3 f'x followed by regorafenib 16 mg/kg × 3 d (sequential), read-out: Concentration in brain
  concentration at 4 h: 30 ± 50 ng/g
brain, oral, RT2 Gy × 3 f'x with regorafenib 16 mg/kg × 3 d (concurrent), read-out: Concentration in brain
  concentration at 4 h: 20 ± 50 ng/g
brain, oral, RT9 Gy × 1 f'x with regorafenib 16 mg/kg × 1 d (concurrent), read-out: Concentration in brain
  concentration at 4 h: 10 ± 20 ng/g
heart, oral, RT2 Gy × 1 f'x followed by regorafenib 16 mg/kg × 1 d (sequential), read-out: Concentration in heart
  concentration at 4 h: 780 ± 270 ng/g
heart, oral, RT2 Gy × 3 f'x followed by regorafenib 16 mg/kg × 3 d (sequential), read-out: Concentration in heart
  concentration at 4 h: 290 ± 180 ng/g
heart, oral, RT2 Gy × 3 f'x with regorafenib 16 mg/kg × 3 d (concurrent), read-out: Concentration in heart
  concentration at 4 h: 30 ± 30 ng/g
heart, oral, RT9 Gy × 1 f'x with regorafenib 16 mg/kg × 1 d (concurrent), read-out: Concentration in heart
  concentration at 4 h: 360 ± 330 ng/g
kidney, oral, RT2 Gy × 1 f'x followed by regorafenib 16 mg/kg × 1 d (sequential), read-out: Concentration in kidneys
  concentration at 4 h: 590 ± 270 ng/g
kidney, oral, RT2 Gy × 3 f'x followed by regorafenib 16 mg/kg × 3 d (sequential), read-out: Concentration in kidneys
  concentration at 4 h: 730 ± 440 ng/g
kidney, oral, RT2 Gy × 3 f'x with regorafenib 16 mg/kg × 3 d (concurrent), read-out: Concentration in kidneys
  concentration at 4 h: 130 ± 60 ng/g
kidney, oral, RT9 Gy × 1 f'x with regorafenib 16 mg/kg × 1 d (concurrent), read-out: Concentration in kidneys
  concentration at 4 h: 180 ± 50 ng/g
liver, oral, RT2 Gy × 1 f'x followed by regorafenib 16 mg/kg × 1 d (sequential), read-out: Concentration in liver
  concentration at 4 h: 2280 ± 750 ng/g
liver, oral, RT2 Gy × 3 f'x followed by regorafenib 16 mg/kg × 3 d (sequential), read-out: Concentration in liver
  concentration at 4 h: 1680 ± 650 ng/g
liver, oral, RT2 Gy × 3 f'x with regorafenib 16 mg/kg × 3 d (concurrent), read-out: Concentration in liver
  concentration at 4 h: 550 ± 270 ng/g
liver, oral, RT9 Gy × 1 f'x with regorafenib 16 mg/kg × 1 d (concurrent), read-out: Concentration in liver
  concentration at 4 h: 1010 ± 580 ng/g
lung, oral, RT2 Gy × 1 f'x followed by regorafenib 16 mg/kg × 1 d (sequential), read-out: Concentration in lung
  concentration at 4 h: 1270 ± 640 ng/g
lung, oral, RT2 Gy × 3 f'x followed by regorafenib 16 mg/kg × 3 d (sequential), read-out: Concentration in lung
  concentration at 4 h: 990 ± 430 ng/g
lung, oral, RT2 Gy × 3 f'x with regorafenib 16 mg/kg × 3 d (concurrent), read-out: Concentration in lung
  concentration at 4 h: 210 ± 90 ng/g
lung, oral, RT9 Gy × 1 f'x with regorafenib 16 mg/kg × 1 d (concurrent), read-out: Concentration in lung
  concentration at 4 h: 170 ± 140 ng/g
spleen, oral, RT2 Gy × 1 f'x followed by regorafenib 16 mg/kg × 1 d (sequential), read-out: Concentration in spleen
  concentration at 4 h: 680 ± 300 ng/g
spleen, oral, RT2 Gy × 3 f'x followed by regorafenib 16 mg/kg × 3 d (sequential), read-out: Concentration in spleen
  concentration at 4 h: 410 ± 240 ng/g
spleen, oral, RT2 Gy × 3 f'x with regorafenib 16 mg/kg × 3 d (concurrent), read-out: Concentration in spleen
  concentration at 4 h: 80 ± 60 ng/g
spleen, oral, RT9 Gy × 1 f'x with regorafenib 16 mg/kg × 1 d (concurrent), read-out: Concentration in spleen
  concentration at 4 h: 140 ± 70 ng/g
Concurrent RT2 Gy × 3 f'x and RT9 Gy × 3 f'x vs control (regorafenib × 3 d)
  Biodistribution in heart, liver, lung, spleen and kidneys (in words): clearly decreased the biodistribution of regorafenib; also recorded: obviously decreased the biodistribution of regorafenib
male, brain, oral, RT2 Gy × 1 f'x with regorafenib 16 mg/kg × 1 d (concurrent), read-out: Concentration in brain
  concentration at 4 h: 20 ± 30 ng/g
male, brain, oral, RT9 Gy × 1 f'x followed by regorafenib 16 mg/kg × 1 d (sequential), read-out: Concentration in brain
  concentration at 4 h: 60 ± 50 ng/g
male, brain, oral, RT9 Gy × 3 f'x followed by regorafenib 16 mg/kg × 3 d (sequential), read-out: Concentration in brain
  concentration at 4 h: 40 ± 80 ng/g
male, brain, oral, RT9 Gy × 3 f'x with regorafenib 16 mg/kg × 3 d (concurrent), read-out: Concentration in brain
  concentration at 4 h: 10 ± 20 ng/g
male, brain, po, 16 mg/kg p.o. × 1 d, no RT, read-out: Concentration in brain
  concentration at 4 h: 30 ± 40 ng/g
male, brain, po, 16 mg/kg p.o. × 3 d, no RT, read-out: Concentration in brain
  concentration at 4 h: 10 ± 20 ng/g
male, heart, oral, RT2 Gy × 1 f'x with regorafenib 16 mg/kg × 1 d (concurrent), read-out: Concentration in heart
  concentration at 4 h: 290 ± 170 ng/g
male, heart, oral, RT9 Gy × 1 f'x followed by regorafenib 16 mg/kg × 1 d (sequential), read-out: Concentration in heart
  concentration at 4 h: 870 ± 140 ng/g
male, heart, oral, RT9 Gy × 3 f'x followed by regorafenib 16 mg/kg × 3 d (sequential), read-out: Concentration in heart
  concentration at 4 h: 170 ± 270 ng/g
male, heart, oral, RT9 Gy × 3 f'x with regorafenib 16 mg/kg × 3 d (concurrent), read-out: Concentration in heart
  concentration at 4 h: 90 ± 70 ng/g
male, heart, po, 16 mg/kg p.o. × 1 d, no RT, read-out: Concentration in heart
  concentration at 4 h: 450 ± 310 ng/g
male, heart, po, 16 mg/kg p.o. × 3 d, no RT, read-out: Concentration in heart
  concentration at 4 h: 250 ± 100 ng/g
male, kidney, oral, RT2 Gy × 1 f'x with regorafenib 16 mg/kg × 1 d (concurrent), read-out: Concentration in kidneys
  concentration at 4 h: 210 ± 110 ng/g
male, kidney, oral, RT9 Gy × 1 f'x followed by regorafenib 16 mg/kg × 1 d (sequential), read-out: Concentration in kidneys
  concentration at 4 h: 590 ± 340 ng/g
male, kidney, oral, RT9 Gy × 3 f'x followed by regorafenib 16 mg/kg × 3 d (sequential), read-out: Concentration in kidneys
  concentration at 4 h: 400 ± 430 ng/g
male, kidney, oral, RT9 Gy × 3 f'x with regorafenib 16 mg/kg × 3 d (concurrent), read-out: Concentration in kidneys
  concentration at 4 h: 170 ± 120 ng/g
male, kidney, po, 16 mg/kg p.o. × 1 d, no RT, read-out: Concentration in kidneys
  concentration at 4 h: 340 ± 190 ng/g
male, kidney, po, 16 mg/kg p.o. × 3 d, no RT, read-out: Concentration in kidneys
  concentration at 4 h: 650 ± 250 ng/g
male, liver, oral, RT2 Gy × 1 f'x with regorafenib 16 mg/kg × 1 d (concurrent), read-out: Concentration in liver
  concentration at 4 h: 1100 ± 510 ng/g
male, liver, oral, RT9 Gy × 1 f'x followed by regorafenib 16 mg/kg × 1 d (sequential), read-out: Concentration in liver
  concentration at 4 h: 2390 ± 1200 ng/g
male, liver, oral, RT9 Gy × 3 f'x followed by regorafenib 16 mg/kg × 3 d (sequential), read-out: Concentration in liver
  concentration at 4 h: 1160 ± 1120 ng/g
